One molecule from patent publication US20050085463A1 (priority 2003, published 2005) can be followed below.

For one test, the target named is T1, M2 muscarinic receptor (Homo sapiens, UniProt P08172).
T1 sequence (P08172 1-466): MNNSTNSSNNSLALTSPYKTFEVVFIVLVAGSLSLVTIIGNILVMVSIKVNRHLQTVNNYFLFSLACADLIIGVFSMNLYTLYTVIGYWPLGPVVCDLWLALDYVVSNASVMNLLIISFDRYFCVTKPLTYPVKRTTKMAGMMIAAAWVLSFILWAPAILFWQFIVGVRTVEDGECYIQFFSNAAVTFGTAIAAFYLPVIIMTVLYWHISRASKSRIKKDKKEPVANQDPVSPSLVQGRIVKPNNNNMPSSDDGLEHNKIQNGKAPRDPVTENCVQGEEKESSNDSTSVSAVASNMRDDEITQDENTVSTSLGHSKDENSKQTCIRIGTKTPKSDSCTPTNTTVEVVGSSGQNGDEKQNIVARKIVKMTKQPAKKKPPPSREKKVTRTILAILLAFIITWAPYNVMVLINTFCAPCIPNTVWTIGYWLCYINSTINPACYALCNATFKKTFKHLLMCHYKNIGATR
Description: R-SAT competitive antagonist assay. Type of test: cell-based. Details: expressed in transfected cells; host or cells: NIH/3T3. The note with it: nr = no significant antagonist or inverse agonist activity up to 1 μM, nr* = nr but significant agonist activity.

A further test deals with 5-HT7A receptor (Homo sapiens, UniProt P34969). Put plainly: R-SAT inverse agonist assay.
The next test has as its target T2, M1 muscarinic receptor (Homo sapiens, UniProt P11229).
T2 sequence (P11229 1-460): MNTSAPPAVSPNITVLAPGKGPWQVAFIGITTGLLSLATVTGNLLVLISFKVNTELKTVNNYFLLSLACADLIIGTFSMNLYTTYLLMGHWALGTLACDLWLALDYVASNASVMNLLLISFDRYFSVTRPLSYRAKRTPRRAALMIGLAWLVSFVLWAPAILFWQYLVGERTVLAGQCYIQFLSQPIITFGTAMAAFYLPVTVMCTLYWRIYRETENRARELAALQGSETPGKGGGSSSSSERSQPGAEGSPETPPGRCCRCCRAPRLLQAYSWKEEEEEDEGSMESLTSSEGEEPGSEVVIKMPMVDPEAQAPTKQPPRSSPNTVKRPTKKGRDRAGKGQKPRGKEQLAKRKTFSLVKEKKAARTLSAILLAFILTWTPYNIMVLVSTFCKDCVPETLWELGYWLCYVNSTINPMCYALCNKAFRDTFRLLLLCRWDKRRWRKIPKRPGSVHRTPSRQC
Put plainly: R-SAT competitive antagonist assay. In kind it is cell-based. The note with it: nr = no significant antagonist or inverse agonist activity up to 1 μM, nr* = nr but significant agonist activity. Details: expressed in transfected cells; host or cells: NIH/3T3.

The target in another test is 5-HT6A receptor (Homo sapiens, UniProt P50406). Put plainly: R-SAT inverse agonist assay. The note with it: R-SAT; nr = no significant antagonist or inverse agonist activity up to 1 μM.
Test [1] addresses T3, α1A (Alpha 1A) adrenergic receptor (Homo sapiens, UniProt P35348).
T3 sequence (P35348 1-466): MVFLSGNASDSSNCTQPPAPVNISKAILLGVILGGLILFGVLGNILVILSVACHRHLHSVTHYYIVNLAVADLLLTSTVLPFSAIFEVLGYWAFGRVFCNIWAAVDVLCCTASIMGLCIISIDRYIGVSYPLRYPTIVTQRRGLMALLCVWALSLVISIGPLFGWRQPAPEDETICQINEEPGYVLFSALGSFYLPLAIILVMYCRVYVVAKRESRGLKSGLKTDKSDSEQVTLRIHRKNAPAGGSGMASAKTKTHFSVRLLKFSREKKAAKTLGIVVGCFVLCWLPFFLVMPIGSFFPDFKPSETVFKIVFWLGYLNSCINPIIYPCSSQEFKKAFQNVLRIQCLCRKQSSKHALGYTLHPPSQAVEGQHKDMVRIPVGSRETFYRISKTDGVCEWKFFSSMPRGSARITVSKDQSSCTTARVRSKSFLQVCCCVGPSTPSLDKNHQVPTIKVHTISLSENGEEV
Description: cell-based.

In test [2] the target is T3, α1A (Alpha 1A) adrenergic receptor. The note with it: R-SAT; nr = no significant antagonist or inverse agonist activity up to 1 μM; nr* = nr but significant agonist activity.
The target in test [3] is T4, 5-HT1A receptor (Homo sapiens, UniProt P08908).
T4 sequence (P08908 1-422): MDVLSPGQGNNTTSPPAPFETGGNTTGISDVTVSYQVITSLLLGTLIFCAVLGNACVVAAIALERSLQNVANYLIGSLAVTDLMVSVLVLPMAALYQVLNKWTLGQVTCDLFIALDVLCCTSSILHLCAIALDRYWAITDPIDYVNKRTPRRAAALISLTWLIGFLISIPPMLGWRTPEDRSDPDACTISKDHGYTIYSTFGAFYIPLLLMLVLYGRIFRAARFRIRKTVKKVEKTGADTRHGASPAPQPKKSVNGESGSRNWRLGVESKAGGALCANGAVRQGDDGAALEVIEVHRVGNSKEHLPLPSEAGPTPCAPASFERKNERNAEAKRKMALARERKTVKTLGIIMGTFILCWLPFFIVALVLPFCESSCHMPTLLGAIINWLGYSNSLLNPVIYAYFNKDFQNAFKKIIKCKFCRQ
Put plainly: R-SAT agonist assay. Type of test: cell-based. The settings on record: relative to 8-OH-DPAT. Details: expressed in transfected cells; host or cells: NIH/3T3.

The next test has as its target T5, M4 muscarinic receptor (Homo sapiens, UniProt P08173).
T5 sequence (P08173 1-479): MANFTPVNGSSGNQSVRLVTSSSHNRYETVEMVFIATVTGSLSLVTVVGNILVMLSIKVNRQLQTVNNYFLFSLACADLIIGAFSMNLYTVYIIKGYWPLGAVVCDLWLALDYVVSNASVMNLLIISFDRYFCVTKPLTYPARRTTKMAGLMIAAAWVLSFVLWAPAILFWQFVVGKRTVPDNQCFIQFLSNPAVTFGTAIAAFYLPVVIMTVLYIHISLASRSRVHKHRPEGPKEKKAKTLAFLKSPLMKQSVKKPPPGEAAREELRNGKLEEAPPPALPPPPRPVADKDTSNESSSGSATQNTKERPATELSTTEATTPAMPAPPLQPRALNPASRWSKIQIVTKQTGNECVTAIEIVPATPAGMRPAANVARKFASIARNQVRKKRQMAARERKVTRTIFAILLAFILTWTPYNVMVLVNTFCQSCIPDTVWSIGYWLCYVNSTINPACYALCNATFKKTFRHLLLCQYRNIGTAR
Put plainly: R-SAT competitive antagonist assay. The settings on record: nr = no significant antagonist or inverse agonist activity up to 1 μM, nr* = nr but significant agonist activity.

The next test addresses T6, M5 muscarinic receptor (Homo sapiens, UniProt P08912).
T6 sequence (P08912 1-532): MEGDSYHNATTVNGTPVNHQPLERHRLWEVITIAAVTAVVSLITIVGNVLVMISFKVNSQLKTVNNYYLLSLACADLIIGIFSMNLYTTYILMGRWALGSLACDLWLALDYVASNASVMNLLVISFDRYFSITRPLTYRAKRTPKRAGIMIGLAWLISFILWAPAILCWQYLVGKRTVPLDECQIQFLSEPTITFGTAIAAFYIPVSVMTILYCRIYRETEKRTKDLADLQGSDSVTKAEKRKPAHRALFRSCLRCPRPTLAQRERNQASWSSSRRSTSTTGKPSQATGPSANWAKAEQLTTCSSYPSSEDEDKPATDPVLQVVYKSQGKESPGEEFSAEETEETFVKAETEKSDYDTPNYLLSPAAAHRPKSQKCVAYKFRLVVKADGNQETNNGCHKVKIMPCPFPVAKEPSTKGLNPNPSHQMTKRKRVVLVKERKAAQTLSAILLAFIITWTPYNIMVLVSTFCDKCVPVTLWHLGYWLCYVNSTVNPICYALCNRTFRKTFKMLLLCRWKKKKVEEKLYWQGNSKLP
Description: R-SAT competitive antagonist assay. The settings on record: nr = no significant antagonist or inverse agonist activity up to 1 μM, nr* = nr but significant agonist activity.

Test [4] concerns the target T4, 5-HT1A receptor. Put plainly: R-SAT competitive antagonist assay.
The next test deals with M3 muscarinic receptor (Homo sapiens, UniProt P20309). Description: R-SAT competitive antagonist assay. The note with it: nr = no significant antagonist or inverse agonist activity up to 1 μM, nr* = nr but significant agonist activity. Type of test: cell-based.
Sequence of M3 muscarinic receptor (P20309 whole entry): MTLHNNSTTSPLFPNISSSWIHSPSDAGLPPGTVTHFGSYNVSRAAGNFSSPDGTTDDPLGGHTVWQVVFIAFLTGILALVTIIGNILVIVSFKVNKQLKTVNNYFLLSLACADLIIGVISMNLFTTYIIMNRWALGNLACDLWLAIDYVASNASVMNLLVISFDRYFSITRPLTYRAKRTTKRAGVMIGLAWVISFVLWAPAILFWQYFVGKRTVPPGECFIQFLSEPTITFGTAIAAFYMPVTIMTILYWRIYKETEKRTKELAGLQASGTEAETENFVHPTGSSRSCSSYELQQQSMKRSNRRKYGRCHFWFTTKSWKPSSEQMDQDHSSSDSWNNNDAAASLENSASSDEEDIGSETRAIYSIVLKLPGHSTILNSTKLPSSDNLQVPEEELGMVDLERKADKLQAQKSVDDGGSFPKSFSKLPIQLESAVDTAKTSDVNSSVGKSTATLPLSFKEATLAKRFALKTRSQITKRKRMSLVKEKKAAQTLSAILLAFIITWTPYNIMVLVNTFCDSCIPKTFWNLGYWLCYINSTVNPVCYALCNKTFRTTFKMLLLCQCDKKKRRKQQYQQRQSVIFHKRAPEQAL

Sequence of 5-HT7A receptor (P34969 1-445 isoform P34969-2): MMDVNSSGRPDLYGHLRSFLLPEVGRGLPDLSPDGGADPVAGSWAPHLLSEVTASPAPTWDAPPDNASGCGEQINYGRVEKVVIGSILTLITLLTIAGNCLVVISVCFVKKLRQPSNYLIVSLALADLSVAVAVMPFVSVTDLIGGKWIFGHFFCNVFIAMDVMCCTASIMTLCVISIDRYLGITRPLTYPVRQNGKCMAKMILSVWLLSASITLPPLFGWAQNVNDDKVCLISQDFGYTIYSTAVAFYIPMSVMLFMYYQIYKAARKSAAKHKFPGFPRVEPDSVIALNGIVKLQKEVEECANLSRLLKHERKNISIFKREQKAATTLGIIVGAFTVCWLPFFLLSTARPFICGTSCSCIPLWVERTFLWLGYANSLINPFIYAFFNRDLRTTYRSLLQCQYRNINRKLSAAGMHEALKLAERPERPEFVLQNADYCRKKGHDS
Sequence of 5-HT6A receptor (P50406 whole entry): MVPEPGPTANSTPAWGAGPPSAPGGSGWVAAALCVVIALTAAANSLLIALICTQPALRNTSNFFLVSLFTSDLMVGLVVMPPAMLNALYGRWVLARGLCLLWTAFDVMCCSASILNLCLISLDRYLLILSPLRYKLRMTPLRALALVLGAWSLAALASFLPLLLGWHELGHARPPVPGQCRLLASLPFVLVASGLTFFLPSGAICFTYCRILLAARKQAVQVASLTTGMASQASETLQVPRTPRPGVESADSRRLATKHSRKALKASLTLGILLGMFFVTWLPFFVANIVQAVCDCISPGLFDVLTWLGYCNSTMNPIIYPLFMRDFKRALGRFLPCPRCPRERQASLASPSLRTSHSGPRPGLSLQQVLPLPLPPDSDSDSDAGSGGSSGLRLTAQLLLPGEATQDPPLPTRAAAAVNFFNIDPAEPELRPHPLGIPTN

In the case of `O=C1Cc2cc(CCN3CCN(c4nsc5ccccc45)CC3)c(Cl)cc2N1` [Ziprasidone, reference compound], at M2 muscarinic receptor, the “pKi M2, competitive antagonist” value was “nr”. The EC50 at 5-HT7A receptor was 50.1 nM. Further, at 5-HT7A receptor (R-SAT, nr = no significant antagonist or inverse agonist activity up to 1 μM), the “pEC50 5HT7A, inverse agonist” value came out at 7.3 ± 0.1. Besides, the “pKi M1, competitive antagonist” value on M1 muscarinic receptor was “nr”. Also, on 5-HT6A receptor, the “pEC50 5HT6A, inverse agonist” value was “nr”. For the same molecule, the Ki in test [1] was 39.8 nM; on 5-HT1A receptor [4], greater than 1000 nM. Moreover, in [2], the “pKi α1A, competitive antagonist” value was 7.4 ± 0.2. Further, on 5-HT1A receptor [3], the “agonist efficacy at human 5-HT1A receptors” value is recorded as less than 30%. In addition, at M4 muscarinic receptor, the “pKi M4, competitive antagonist” value is given as “nr”. For the same molecule, the “pKi M5, competitive antagonist” value on M5 muscarinic receptor is recorded as “nr”. Further, the “pKi 5-HT1A, competitive antagonist” value on 5-HT1A receptor [4] (R-SAT, nr = no significant antagonist or inverse agonist activity up to 1 μM, nr* = nr but significant agonist activity) is “nr* and nr*^2”. For the same molecule, the “pKi M3, competitive antagonist” value at M3 muscarinic receptor was “nr”.
